Data on 19 molecules can be found in patent US11472803B2, “7-substituted 1-aryl-naphthyridine-3-carboxylic acid amides and use thereof” (Bayer Aktiengesellschaft, priority 2016, dated 2022).

This assay addresses T1, human M2 receptor (Homo sapiens, UniProt P08172).
T1 construct: expressed in transfected cells; host or cells: CHO-DUKX (CHO-DUKX-M2-GIRK)
T1 sequence (P08172 1-466): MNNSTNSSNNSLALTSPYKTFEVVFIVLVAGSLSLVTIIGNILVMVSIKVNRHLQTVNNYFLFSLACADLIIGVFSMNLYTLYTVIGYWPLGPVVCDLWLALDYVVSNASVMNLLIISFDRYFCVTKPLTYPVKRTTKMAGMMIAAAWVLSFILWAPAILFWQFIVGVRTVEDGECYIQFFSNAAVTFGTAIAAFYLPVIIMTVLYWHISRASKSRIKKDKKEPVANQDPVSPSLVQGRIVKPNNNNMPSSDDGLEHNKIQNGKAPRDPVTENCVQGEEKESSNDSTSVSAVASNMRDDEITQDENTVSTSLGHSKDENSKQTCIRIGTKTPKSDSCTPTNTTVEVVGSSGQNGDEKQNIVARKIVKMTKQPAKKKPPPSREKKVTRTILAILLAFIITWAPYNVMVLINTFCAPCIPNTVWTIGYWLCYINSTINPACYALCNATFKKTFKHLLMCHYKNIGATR
The experiment in a line: Functional M2-GIRK1/4 activation test: allosteric potency (EC50) and efficiency at EC20 acetylcholine. In kind it is cell-based. The conditions noted are these: CHO-DUKX-M2-GIRK cells; for EC50: voltage-sensitive dye, acetylcholine at EC20, in some cases mean of two or more determinations; for Emax / Efficiency: boosting of the acetylcholine effect at EC20 acetylcholine concentration. From the text:
The binding of orthosteric agonists (endogenous ligand: acetylcholine) to the M2 receptor leads to receptor activation or a change in conformation of the receptor in the manner of a shift in equilibrium in favour of the active receptor conformation.
The agonist-induced change in conformation of the M2 receptor results in a Gαi protein activation. […] Under physiological conditions, the result is then a selective efflux of potassium from the cell along the electrochemical gradient. […] The extent of hyperpolarization can therefore be regarded as a measure of the activation of the M2 receptor.
The test cell used is a recombinant CHO-DUKX cell line which has been stably transfected with cDNA coding for the human M2 receptor and with cDNA coding for both GIRK1/4 subunits (CHO-DUKX-M2-GIRK). The transmembrane potential, or the relative changes in the transmembrane potential as a function of substance addition or M2 activation, is determined by means of a voltage-sensitive dye (FLIPR Membrane Potential Assay Kit Blue, Molecular Devices #R8034) and the measurement of cell fluorescence using a proprietary fluorescence imaging instrument.
The sowing medium consisted of MEM alpha medium (supplemented with 5% PCS, 2% Glutamax, no genticin).
For the particular measurement, the medium was removed and the cells were laden with the volt-age-sensitive dye for at least 6 min at room temperature (30 μl of loading buffer per 384-well). This was followed, in a first measurement, by the determination of the fluorescence for the resting transmembrane potential for a period of 5 sec. Thereafter, 10 μl in each case of the test substances diluted in loading buffer were added, followed by a second measurement to determine the transmembrane potential for a period of 50 sec in 1 sec increments. Finally, the cells were admixed with 10 μl of agonist solution (acetylcholine dissolved in loading buffer). Acetylcholine was used at the concentration corresponding to the EC20, which had been determined in a preliminary test. The M2-mediated GIRK1/4 activation or hyperpolarization was then monitored in a third measurement over a period of 60 sec. The EC50 value (degree of allosteric potency of test compound) and the efficiency (measure of the boosting of the acetylcholine effect at an EC20 acetylcholine concentration) were determined with the aid of a 4-parameter logistic function (Hill function).

As to `CC[C@H](NC(=O)c1cn(-c2c(F)cc(F)cc2F)c2nc(N3CCCC[C@H]3CO)c(F)cc2c1=O)C(F)(F)F` [Example 57, 6-Fluoro-7-[(2S)-2-(hydroxymethyl)piperidin-1-yl]-4-oxo-N-[(2S)-1,1,1-trifluorobutan-2-yl]-1-(2,4,6-trifluorophenyl)-1,4-dihydro-1,8-naphthyridine-3-carboxamide], a half-maximal response (EC50) required 78.5 nM and the Emax (usually the size of the effect at its maximum, as opposed to the concentration needed) was 89%.
For the molecule `CC(NC(=O)c1cn(-c2ncc(F)cc2F)c2nc(N3CC(O)C(O)C3)c(F)cc2c1=O)C(F)(F)C(F)(F)F` (single isomer, unassigned) [Example 46], the EC50 – broadly, the concentration that produces a half-maximal response – was 51 nM and the Efficiency came out at 100%.
`CC(C)[C@H](C)NC(=O)c1cn(-c2c(F)cc(F)cc2F)c2nc(N3C[C@@H](O)[C@@H](O)C3)c(F)cc2c1=O` [Example 100, 7-[(3R,4S)-3,4-Dihydroxypyrrolidin-1-yl]-6-fluoro-N-[(2S)-3-methylbutan-2-yl]-4-oxo-1-(2,4,6-trifluorophenyl)-1,4-dihydro-1,8-naphthyridine-3-carboxamide] showed a 50% effective concentration (EC50) of 31.5 nM and a maximal effect (Emax) of 100%.
`CC(NC(=O)c1cn(-c2ncc(F)cc2F)c2nc(N3C[C@@H](O)[C@H](O)C3)c(F)cc2c1=O)C(F)(F)C(F)(F)F` (mixture of isomers) [Example 39, 1-(3,5-difluoropyridin-2-yl)-7-[(3R,4R)-3,4-dihydroxypyrrolidin-1-yl]-6-fluoro-4-oxo-N-[(2)-3,3,4,4,4-pentafluorobutan-2-yl]-1,4-dihydro-1,8-naphthyridine-3-carboxamide] came in with a concentration for a half-maximal effect (EC50) of 20.5 nM and a maximal effect (Emax) of 100%.
In the case of `C[C@@H](NC(=O)c1cn(-c2c(F)cc(F)cc2F)c2nc(N3C[C@@H](O)[C@H](O)C3)c(F)cc2c1=O)C1CC1` [Example 19, N-[(1R)-1-cyclopropylethyl]-7-[(3R,4R)-3,4-dihydroxypyrrolidin-1-yl]-6-fluoro-4-oxo-1-(2,4,6-trifluorophenyl)-1,4-dihydro-1,8-naphthyridine-3-carboxamide], the EC50 worked out at 16 nM and the Emax worked out at 98%.
`CC(C)(NC(=O)c1cn(-c2c(F)cc(F)cc2Cl)c2nc(N3C[C@@H](O)[C@H](O)C3)c(F)cc2c1=O)C(F)F` (single isomer, unassigned) [Example 142] registered a concentration for a half-maximal effect (EC50) of 39 nM and an Emax of 99%.
As for `CC(C)C(NC(=O)c1cn(-c2c(F)cc(F)cc2F)c2nc(N3CC[C@H](O)C3)c(F)cc2c1=O)C(F)(F)F` (mixture of isomers) [Example 126, 6-Fluoro-7-[(3S)-3-hydroxypyrrolidin-1-yl]-4-oxo-N-[1,1,1-trifluoro-3-methylbutan-2-yl]-1-(2,4,6-trifluorophenyl)-1,4-dihydro-1,8-naphthyridine-3-carboxamide], the response was half-maximal at 3.9 nM (EC50) and the Emax came out at 97%.
Take `CC(NC(=O)c1cn(-c2ncc(F)cc2F)c2nc(N3CC[C@H](O)C3)c(F)cc2c1=O)C(F)(F)C(F)(F)F` (single isomer, unassigned) [Example 128]: the EC50 stood at 9.8 nM and the maximal effect (Emax) was found to be 90%.
On to `CC(C)(C)OC(=O)N1CCC(NC(=O)c2cn(-c3c(F)cc(F)cc3F)c3nc(N4C[C@@H](O)[C@H](O)C4)c(F)cc3c2=O)C(F)(F)C1` (stereo partly drawn) [Example 85, tert-Butyl 4-[({7-[(3R,4R)-3,4-dihydroxypyrrolidin-1-yl]-6-fluoro-4-oxo-1-(2,4,6-trifluoro-phenyl)-1,4-dihydro-1,8-naphthyridin-3-yl}carbonyl)amino]-3,3-difluoropiperidine-1-carboxylate], for which the response was half-maximal at 33 nM (EC50) and the maximum response (Emax) was determined as 100%.
The molecule `CC(NC(=O)c1cn(-c2c(F)cc(F)cc2F)c2nc(N3CCC4(C3)NC(=O)N(C)C4=O)c(F)cc2c1=O)C(F)(F)C(F)(F)F` (centres unmarked) [Example 234, 6-Fluoro-7-(3-methyl-2,4-dioxo-1,3,7-triazaspiro[4.4]non-7-yl)-4-oxo-N-[3,3,4,4,4-pentafluorobutan-2-yl]-1-(2,4,6-trifluorophenyl)-1,4-dihydro-1,8-naphthyridine-3-carboxamide] came in with an EC50 of 9.7 nM and a maximum response (Emax) of 90%.
`CCC(CC)(CC)NC(=O)c1cn(-c2c(F)cc(F)cc2F)c2nc(N3C[C@@H](O)[C@H](O)C3)c(F)cc2c1=O` [Example 87, 7-[(3R,4R)-3,4-Dihydroxypyrrolidin-1-yl]-N-(3-ethylpentan-3-yl)-6-fluoro-4-oxo-1-(2,4,6-tri-fluorophenyl)-1,4-dihydro-1,8-naphthyridine-3-carboxamide] had an EC50 of 1.4 nM and an Emax of 100%.
`O=C(NC(C(F)(F)F)C(F)(F)F)c1cn(-c2c(F)cc(F)cc2F)c2nc(N3CCC(O)(CO)CC3)c(F)cc2c1=O` [Example 189, 6-Fluoro-N-(1,1,1,3,3,3-hexafluoropropan-2-yl)-7-[4-hydroxy-4-(hydroxymethyl)piperidin-1-yl]-4-oxo-1-(2,4,6-trifluorophenyl)-1,4-dihydro-1,8-naphthyridine-3-carboxamide] came in with an EC50 of 30 nM and an Emax of 100%.
The molecule `CC[C@H](NC(=O)c1cn(-c2c(F)cc(F)cc2Cl)c2nc(N3C[C@@H](O)[C@H](O)C3)c(F)cc2c1=O)C(F)(F)F` (single isomer, unassigned) [Example 47] gave a concentration for a half-maximal effect (EC50) of 48 nM and a maximal effect (Emax) of 81%.
`CCC(NC(=O)c1cn(-c2c(F)cc(F)cc2F)c2nc(N3C[C@@H](O)[C@@H](O)C3)c(F)cc2c1=O)C(C)C` (stereo partly drawn) [Example 106, 7-[(3R,4S)-3,4-Dihydroxypyrrolidin-1-yl]-6-fluoro-V-[2-methylpentan-3-yl]-6-fluoro-4-oxo-1-(2,4,6-trifluorophenyl)-1,4-dihydro-1,8-naphthyridine-3-carboxamide] yielded an EC50 of 7.2 nM and an Efficiency of 100%.
Consider `CN1CCN(c2nc3c(cc2F)c(=O)c(C(=O)N[C@@H](C2CC2)C(F)(F)F)cn3-c2c(F)cc(F)cc2F)CC1CO` (stereo partly drawn) [Example 179, N-[(1S)-1-Cyclopropyl-2,2,2-trifluoroethyl]-6-fluoro-7-[3-(hydroxymethyl)-4-methylpiperazin-1-yl]-4-oxo-1-(2,4,6-trifluorophenyl)-1,4-dihydro-1,8-naphthyridine-3-carboxamide], for which the concentration for a half-maximal effect (EC50) was found to be 27 nM and the Emax was 100%.
On to `CC(NC(=O)c1cn(-c2c(F)cc(F)cc2F)c2nc(N3CCCC(O)(CO)C3)c(F)cc2c1=O)C(F)(F)C(F)(F)F` (centres unmarked) [Example 192, 6-Fluoro-7-[3-hydroxy-3-(hydroxymethyl)piperidin-1-yl]-4-oxo-N-[3,3,4,4,4-pentafluorobutan-2-yl]-1-(2,4,6-trifluorophenyl)-1,4-dihydro-1,8-naphthyridine-3-carboxamide], for which the concentration giving a half-maximal response (EC50) was found to be 128 nM and the maximum response (Emax) stood at 100%.
The like results for `O=C(NCC(F)(F)F)c1cn(-c2c(F)cc(F)cc2Cl)c2nc(N3C[C@@H](O)[C@H](O)C3)c(F)cc2c1=O` [Example 221, 1-(2-Chloro-4,6-difluorophenyl)-7-[(3R,4R)-3,4-dihydroxypyrrolidin-1-yl]-6-fluoro-4-oxo-N-(2,2,2-trifluoroethyl)-1,4-dihydro-1,8-naphthyridine-3-carboxamide] were, in that order, 31 nM and 85%.
Molecule `CC(NC(=O)c1cn(-c2c(F)cc(F)cc2F)c2nc(N3CC[C@H](O)C3)c(F)cc2c1=O)C(F)(F)C(F)(F)F` (single isomer, unassigned) [Example 114] yielded a concentration for a half-maximal effect (EC50) of 7 nM and an Efficiency of 94%.
For `CCC(NC(=O)c1cn(-c2c(F)cc(F)cc2F)c2nc(N3CC[C@H](O)C3)c(F)cc2c1=O)C(C)C` (single isomer, unassigned) [Example 118], the EC50 came to 2.8 nM and the Efficiency amounted to 100%.
